Laboratory results taken from patent US12662491B2 (Redona Therapeutics, Inc., priority 2020, dated 2026).

These molecules were tested against T1, Zcchc11 enzyme (Homo sapiens, UniProt Q5TAX3) (assay: TUTase assay (Zcchc11 assay, Lin28a-dependent polyuridylation of pre-let-7)). Conditions: Lin28a-dependent Zcchc11 (Z11) TUTase assay; read-out: Potency Lin28a-dep Z11 IC50.
T1 construct: made in house; host or cells: HEK293 cells (Zcchc11); E. coli Rosetta II (LIN28A)
T1 sequence (Q5TAX3 212-1420): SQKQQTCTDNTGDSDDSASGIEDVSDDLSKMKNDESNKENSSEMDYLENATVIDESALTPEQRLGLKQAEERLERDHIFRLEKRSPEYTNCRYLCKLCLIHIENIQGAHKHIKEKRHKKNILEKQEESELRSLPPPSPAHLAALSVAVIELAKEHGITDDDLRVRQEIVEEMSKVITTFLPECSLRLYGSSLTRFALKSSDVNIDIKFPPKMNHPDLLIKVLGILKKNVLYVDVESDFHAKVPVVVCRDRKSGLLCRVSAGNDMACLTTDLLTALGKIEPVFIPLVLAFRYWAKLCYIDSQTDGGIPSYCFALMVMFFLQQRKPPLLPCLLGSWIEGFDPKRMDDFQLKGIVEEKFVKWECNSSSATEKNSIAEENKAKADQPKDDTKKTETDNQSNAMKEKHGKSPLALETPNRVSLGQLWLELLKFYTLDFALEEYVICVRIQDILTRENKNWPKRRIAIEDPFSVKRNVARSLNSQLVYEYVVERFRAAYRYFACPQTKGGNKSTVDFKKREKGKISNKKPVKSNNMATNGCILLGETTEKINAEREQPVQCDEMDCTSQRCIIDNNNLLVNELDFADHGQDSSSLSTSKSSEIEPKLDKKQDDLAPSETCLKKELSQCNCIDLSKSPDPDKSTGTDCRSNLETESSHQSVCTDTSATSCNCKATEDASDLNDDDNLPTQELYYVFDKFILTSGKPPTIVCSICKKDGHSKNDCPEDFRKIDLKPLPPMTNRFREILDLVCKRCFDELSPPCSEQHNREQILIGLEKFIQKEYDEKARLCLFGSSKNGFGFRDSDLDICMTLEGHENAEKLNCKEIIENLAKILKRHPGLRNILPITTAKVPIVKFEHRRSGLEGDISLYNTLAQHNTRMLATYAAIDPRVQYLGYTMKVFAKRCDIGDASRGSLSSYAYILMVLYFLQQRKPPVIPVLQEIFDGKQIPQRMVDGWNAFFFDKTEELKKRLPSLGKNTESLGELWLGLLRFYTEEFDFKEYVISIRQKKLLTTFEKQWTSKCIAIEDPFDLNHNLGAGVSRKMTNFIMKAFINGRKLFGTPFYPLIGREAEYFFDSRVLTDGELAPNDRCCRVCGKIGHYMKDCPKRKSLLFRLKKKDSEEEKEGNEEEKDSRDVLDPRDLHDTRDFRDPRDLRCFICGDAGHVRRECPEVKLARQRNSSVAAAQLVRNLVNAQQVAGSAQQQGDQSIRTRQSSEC
Type: biochemical
Summary of the method: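 Human Zcchc11 residues 212-1420 (HEK293-expressed, MBP tag cleaved, C-terminal FLAG) at 0.2 nM, with 10 nM full-length human LIN28A and 2 nM 5′-fluorescein pre-let-7, preincubated with compound 30 min at room temperature. Reaction started with 5 uM UTP plus 4 nM 3′-rhodamine A20 quench probe; fluorescein loss read kinetically, IC50 from initial rates.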

| SMILES | IC50 [nM] |
| --- | --- |
| N#Cc1cc2c(=O)c(C(=O)O)cn(C3CCn4ccnc4C3)c2cc1N1CCC[C@@H]1COc1ncccc1Cl (stereo partly drawn) [Example 540, 7-((R)-2-(((3-chloropyridin-2-yl)oxy)methyl)pyrrolidin-1-yl)-6-cyano-4-oxo-1-(5,6,7,8-tetrahydroimidazo [1,2-a]pyridin-7-yl)-1,4-dihydroquinoline-3-carboxylic acid] | ≤ 1000 |
| CN(C)C1CN(c2ccc(-n3cc(C(=O)O)c(=O)c4cc(C#N)c(N5CCC[C@@H]5COc5ncccc5Cl)cc43)cn2)C1 [Example 542, (R)-7-(2-(((3-chloropyridin-2-yl)oxy)methyl)pyrrolidin-1-yl)-6-cyano-1-(6-(3-(dimethylamino)azetidin-1-yl)pyridin-3-yl)-4-oxo-1,4-dihydroquinoline-3-carboxylic acid] | ≤ 1000 |
| O=C(O)c1cn(-c2ccnc(N3CCC3)c2)c2nc(N3CCC[C@@H]3COc3ncccc3Cl)c(Cl)cc2c1=O [Example 543, (R)-1-(2-(azetidin-1-yl)pyridin-4-yl)-6-chloro-7-(2-(((3-chloropyridin-2-yl)oxy)methyl)pyrrolidin-1-yl)-4-oxo-1,4-dihydro-1,8-naphthyridine-3-carboxylic acid] | ≤ 1000 |
| CN(C)C1CN(c2cc(-n3cc(C(=O)O)c(=O)c4cc(Cl)c(N5CCC[C@@H]5COc5ncccc5Cl)nc43)ccn2)C1 [Example 544, (R)-6-chloro-7-(2-(((3-chloropyridin-2-yl)oxy)methyl)pyrrolidin-1-yl)-1-(2-(3-(dimethylamino)azetidin-1-yl)pyridin-4-yl)-4-oxo-1,4-dihydro-1,8-naphthyridine-3-carboxylic acid] | ≤ 1000 |
| Cc1cc2c(=O)c(C(=O)O)cn(-c3ccc(N4CC(N(C)C)C4)nc3)c2cc1N1CCC[C@@H]1COc1ncccc1C [Example 545, (R)-1-(6-(3-(dimethylamino)azetidin-1-yl)pyridin-3-yl)-6-methyl-7-(2-(((3-methylpyridin-2-yl)oxy)methyl)pyrrolidin-1-yl)-4-oxo-1,4-dihydroquinoline-3-carboxylic acid] | ≤ 1000 |
| CCc1cc2c(=O)c(C(=O)O)cn(-c3ccc(N4CC(N(C)C)C4)nc3)c2cc1N1CCC[C@@H]1COc1ncccc1Cl [Example 546, (R)-7-(2-(((3-chloropyridin-2-yl)oxy)methyl)pyrrolidin-1-yl)-1-(6-(3-(dimethylamino)azetidin-1-yl)pyridin-3-yl)-6-ethyl-4-oxo-1,4-dihydroquinoline-3-carboxylic acid] | ≤ 1000 |

More lines, now with the values ahead:

| IC50 [nM] | SMILES |
| --- | --- |
| ≤ 1000 | O=C(O)c1cn(-c2ccncn2)c2cc(N3CCC[C@@H]3COc3ncccc3Cl)c(Cl)cc2c1=O [Example 541, (R)-6-chloro-7-(2-(((3-chloropyridin-2-yl)oxy)methyl)pyrrolidin-1-yl)-4-oxo-1-(pyrimidin-4-yl)-1,4-dihydroquinoline-3-carboxylic acid] |
| ≤ 1000 | CN(C)C1CN(c2cc(-n3cc(C(=O)O)c(=O)c4cc(Cl)c(N5CCC[C@@H]5COc5ncccc5Cl)cc43)ccn2)C1 [Example 548, (R)-6-chloro-7-(2-(((3-chloropyridin-2-yl)oxy)methyl)pyrrolidin-1-yl)-1-(2-(3-(dimethylamino)azetidin-1-yl)pyridin-4-yl)-4-oxo-1,4-dihydroquinoline-3-carboxylic acid] |
| ≤ 1000 | O=C(O)c1cn(-c2cnc3[nH]ncc3n2)c2cc(N3CCC[C@@H]3COc3ncccc3Cl)c(Cl)cc2c1=O [Example 549, (R)-6-chloro-7-(2-(((3-chloropyridin-2-yl)oxy)methyl)pyrrolidin-1-yl)-4-oxo-1-(1H-pyrazolo[3,4-b]pyrazin-5-yl)-1,4-dihydroquinoline-3-carboxylic acid] |
| ≤ 1000 | CCc1cc2c(=O)c(C(=O)O)cn(-c3cnccn3)c2cc1N1CCC[C@@H]1COc1ncccc1Cl [Example 551, (R)-7-(2-(((3-chloropyridin-2-yl)oxy)methyl)pyrrolidin-1-yl)-6-ethyl-4-oxo-1-(pyrazin-2-yl)-1,4-dihydroquinoline-3-carboxylic acid] |
